Source: US10772934B2 (Longevity Biotech, Inc., priority 2010, dated 2020)
No end group written: not given here.

Tests used:
[1] = in the blood stream; cited from earlier work
G-actin monomers = conditions: 1:1 ratio; read-out: Kd, sequestration of G-actin monomers; cited from earlier work
Glucagon receptor = molecular target: T1, Glucagon receptor (Rattus norvegicus, UniProt P30082); conditions: cited from earlier work
T1 construct: from tissue; host or cells: rat liver membranes

[2] = system: vasoactive intestinal peptide (VIP); conditions: read-out: IC50, selective VIP antagonist; cited from earlier work
glucagon receptors = glucagon receptors (Homo sapiens, UniProt P47871); conditions: cited from earlier work
secretin receptors = secretin receptors (Homo sapiens, UniProt P47872); conditions: cited from earlier work
GRF receptors = molecular target: T2, GRF receptors (Homo sapiens, UniProt Q02643); conditions: cited from earlier work
T2 sequence (Q02643 23-423): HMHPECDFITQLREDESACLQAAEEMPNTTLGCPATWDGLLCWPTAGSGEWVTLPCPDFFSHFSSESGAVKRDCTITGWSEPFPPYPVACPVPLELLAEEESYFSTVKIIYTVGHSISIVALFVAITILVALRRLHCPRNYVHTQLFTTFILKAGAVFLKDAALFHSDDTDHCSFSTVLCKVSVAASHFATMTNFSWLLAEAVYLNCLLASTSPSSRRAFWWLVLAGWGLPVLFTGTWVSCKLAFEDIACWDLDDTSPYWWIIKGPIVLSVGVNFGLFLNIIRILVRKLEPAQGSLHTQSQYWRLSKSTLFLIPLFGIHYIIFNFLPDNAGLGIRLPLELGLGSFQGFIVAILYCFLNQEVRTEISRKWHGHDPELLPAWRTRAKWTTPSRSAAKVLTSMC

calcitonin (CT) receptor = conditions: cited from earlier work
[3] = molecular target: calcitonin-gene related peptide (CGRP) receptors (Homo sapiens, UniProt O60894+Q16602); conditions: cited from earlier work
adrenomedullin receptors = adrenomedullin receptors (Homo sapiens, UniProt Q16602); conditions: cited from earlier work
VIPR1 = molecular target: T3, VIPR1 (Homo sapiens, UniProt P32241); assay: cAMP Hunter cell line functional assay, agonist mode (DiscoveRx HitHunter cAMP XS+); format: cell-based; conditions: for Mean RLU: Cell Line VIPR1, Mode Agonist, Readout cAMP
T3 sequence (P32241 31-457): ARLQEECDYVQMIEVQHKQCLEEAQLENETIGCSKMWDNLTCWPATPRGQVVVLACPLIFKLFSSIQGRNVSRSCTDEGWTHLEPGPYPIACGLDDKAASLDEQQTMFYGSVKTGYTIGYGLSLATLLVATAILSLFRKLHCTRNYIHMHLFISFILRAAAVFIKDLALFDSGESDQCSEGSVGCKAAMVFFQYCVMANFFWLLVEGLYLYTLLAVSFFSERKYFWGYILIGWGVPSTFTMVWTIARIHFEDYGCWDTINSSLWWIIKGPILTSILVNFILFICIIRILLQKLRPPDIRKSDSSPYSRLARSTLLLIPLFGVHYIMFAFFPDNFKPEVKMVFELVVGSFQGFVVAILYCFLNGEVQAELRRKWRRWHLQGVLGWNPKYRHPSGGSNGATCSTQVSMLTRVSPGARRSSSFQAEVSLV
Description: (§1) Once it was established that the cells were healthy and growing normally, cells were passaged from flasks using cell dissociation reagent buffer and seeded into white walled clear bottom 384-well microplates for compound profiling. For profiling, cells were seeded at a density of 10,000 cells per well in a total volume of 20 μL and were allowed to adhere and recover overnight prior to compound addition. cAMP modulation was determined using the DiscoveRx HitHunter cAMP XS+ assay.
(§2) For profiling compound in agonist mode, the cells were incubated in the presence of compound at 37° C. for 30 minutes. […] After appropriate compound incubation, assay signal was generated through incubation with DiscoverX lysis cocktail according to the manufacturers standard protocol. Dose curves were plotted using GraphPad Prism or Activity Base. Percentage activity is calculated using the following formula: % Activity=100%×(mean RLU of test sample−mean RLU of vehicle control)/(mean RLU of MAX control−mean RLU of vehicle control).

VIPR2 = molecular target: T4, VIPR2 (Homo sapiens, UniProt P41587); assay: as above; format: cell-based; conditions: for Mean RLU: Cell Line VIPR2, Mode Agonist, Readout cAMP
T4 construct: host or cells: cAMP Hunter cell lines (CHO-K1 is named only in the prophetic assay)
T4 sequence (P41587 24-438): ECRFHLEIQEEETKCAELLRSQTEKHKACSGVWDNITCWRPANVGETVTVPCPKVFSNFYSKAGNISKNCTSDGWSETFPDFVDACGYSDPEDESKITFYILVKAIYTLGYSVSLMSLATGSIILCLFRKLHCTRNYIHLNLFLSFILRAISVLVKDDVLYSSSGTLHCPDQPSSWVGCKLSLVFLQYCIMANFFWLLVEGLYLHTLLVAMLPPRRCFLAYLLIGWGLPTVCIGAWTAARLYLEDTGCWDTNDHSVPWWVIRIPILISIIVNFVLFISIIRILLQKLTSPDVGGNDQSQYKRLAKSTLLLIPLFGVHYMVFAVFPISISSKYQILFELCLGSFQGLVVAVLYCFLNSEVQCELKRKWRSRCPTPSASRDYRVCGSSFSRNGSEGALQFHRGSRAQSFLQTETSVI
Description: as §1, §2

T1 sequence (P30082 27-485): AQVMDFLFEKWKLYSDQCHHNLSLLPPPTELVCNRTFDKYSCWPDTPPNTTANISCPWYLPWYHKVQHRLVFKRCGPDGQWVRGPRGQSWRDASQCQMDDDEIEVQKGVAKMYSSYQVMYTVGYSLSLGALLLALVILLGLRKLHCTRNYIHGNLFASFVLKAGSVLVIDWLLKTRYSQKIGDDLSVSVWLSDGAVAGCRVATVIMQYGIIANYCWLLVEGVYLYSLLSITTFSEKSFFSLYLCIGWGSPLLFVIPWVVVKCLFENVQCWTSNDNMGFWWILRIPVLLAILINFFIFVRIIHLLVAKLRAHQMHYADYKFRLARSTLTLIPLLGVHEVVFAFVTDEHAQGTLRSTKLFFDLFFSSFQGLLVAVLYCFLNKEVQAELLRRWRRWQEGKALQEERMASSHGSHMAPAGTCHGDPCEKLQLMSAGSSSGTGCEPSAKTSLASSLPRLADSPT
adrenomedullin receptors, sequence (Q16602 23-461): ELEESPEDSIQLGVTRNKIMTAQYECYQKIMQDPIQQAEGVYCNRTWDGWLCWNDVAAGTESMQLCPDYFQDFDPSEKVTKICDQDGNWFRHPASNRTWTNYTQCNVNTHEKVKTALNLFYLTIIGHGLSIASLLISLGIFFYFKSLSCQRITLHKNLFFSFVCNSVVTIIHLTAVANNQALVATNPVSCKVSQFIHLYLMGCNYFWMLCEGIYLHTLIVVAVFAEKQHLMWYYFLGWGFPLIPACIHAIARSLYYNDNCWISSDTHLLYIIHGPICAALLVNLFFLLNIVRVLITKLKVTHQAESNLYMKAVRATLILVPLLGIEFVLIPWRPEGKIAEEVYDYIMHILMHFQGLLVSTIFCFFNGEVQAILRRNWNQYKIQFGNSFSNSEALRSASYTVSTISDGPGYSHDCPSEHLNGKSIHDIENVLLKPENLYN
calcitonin-gene related peptide (CGRP) receptors, sequence (Q16602 23-461): as above
calcitonin-gene related peptide (CGRP) receptors, sequence (O60894 27-148 partner): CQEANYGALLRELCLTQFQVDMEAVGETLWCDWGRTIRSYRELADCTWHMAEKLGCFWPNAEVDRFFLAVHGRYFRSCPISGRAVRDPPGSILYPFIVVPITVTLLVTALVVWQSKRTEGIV
glucagon receptors, sequence (P47871 26-477): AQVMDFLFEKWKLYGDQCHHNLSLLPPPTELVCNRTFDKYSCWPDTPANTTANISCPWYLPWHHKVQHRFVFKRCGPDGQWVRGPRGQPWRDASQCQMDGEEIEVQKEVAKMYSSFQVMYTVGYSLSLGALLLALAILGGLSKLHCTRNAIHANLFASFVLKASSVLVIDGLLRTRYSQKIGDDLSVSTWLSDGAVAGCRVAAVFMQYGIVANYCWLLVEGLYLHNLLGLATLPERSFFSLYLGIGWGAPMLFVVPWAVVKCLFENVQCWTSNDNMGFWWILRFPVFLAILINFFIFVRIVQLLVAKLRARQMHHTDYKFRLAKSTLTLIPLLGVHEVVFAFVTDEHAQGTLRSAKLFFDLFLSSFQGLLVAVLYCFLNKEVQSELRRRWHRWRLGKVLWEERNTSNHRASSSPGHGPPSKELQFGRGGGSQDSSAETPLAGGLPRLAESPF
secretin receptors, sequence (P47872 23-440): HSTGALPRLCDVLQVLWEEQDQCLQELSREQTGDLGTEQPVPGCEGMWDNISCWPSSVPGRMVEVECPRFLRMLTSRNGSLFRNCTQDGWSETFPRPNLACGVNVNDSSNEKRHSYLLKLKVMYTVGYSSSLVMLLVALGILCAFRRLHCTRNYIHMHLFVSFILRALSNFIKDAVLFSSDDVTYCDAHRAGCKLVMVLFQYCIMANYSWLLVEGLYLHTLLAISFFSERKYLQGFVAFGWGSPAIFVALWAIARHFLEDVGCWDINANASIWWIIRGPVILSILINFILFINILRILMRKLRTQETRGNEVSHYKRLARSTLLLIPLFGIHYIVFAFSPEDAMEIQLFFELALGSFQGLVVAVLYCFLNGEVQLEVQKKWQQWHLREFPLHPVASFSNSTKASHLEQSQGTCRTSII

**Q.** For CC[C@H](C)[C@H](NC(=O)[C@H](CO)NC(=O)[C@H](CC(N)=O)NC(=O)[C@H](CC(C)C)NC(=O)[C@H](Cc1ccc(O)cc1)NC(=O)[C@H](CCCCN)NC(=O)[C@H](CCCCN)NC(=O)[C@@H](NC(=O)[C@H](C)NC(=O)[C@H](CCSC)NC(=O)[C@H](CCC(N)=O)NC(=O)[C@H](CCCCN)NC(=O)[C@H](CCCN=C(N)N)NC(=O)[C@H](CC(C)C)NC(=O)[C@H](CCCN=C(N)N)NC(=O)[C@@H](NC(=O)[C@H](Cc1ccc(O)cc1)NC(=O)[C@H](CC(N)=O)NC(=O)[C@H](CC(=O)O)NC(=O)[C@@H](NC(=O)[C@H](Cc1ccccc1)NC(=O)[C@@H](NC(=O)[C@H](C)NC(=O)[C@H](CC(=O)O)NC(=O)[C@H](CO)NC(=O)[C@@H](N)Cc1c[nH]cn1)C(C)C)[C@@H](C)O)[C@@H](C)O)C(C)C)C(=O)N[C@@H](CC(C)C)C(=O)N[C@@H](CC(N)=O)C(N)=O [VIP], which half-life [1] is on record?
**A.** about two

**Q.** With Thymosin β4 as the molecule, how does the Kd (G-actin monomers) read?
**A.** 700 to 1000 nM

**Q.** For des-His1-{Glu9}-Glucagon (1-29) amide, which “Agonist activity at the glucagon receptor” value (Glucagon receptor) is on record?
**A.** adenylyl cyclase activation in rat liver membranes); displays no agonist activity.

**Q.** And the “pA2 for inhibition of glucagon-induced adenylyl cyclase activation” value (Glucagon receptor; rat liver membranes)?
**A.** (Glucagon receptor antagonist (pA2 = 7.2 for inhibition of glucagon-induced

**Q.** What does the source list for {D-p-Cl-Phe6,Leu17}-VIP?
**A.** IC50 [2]: 126 nM; Activity on glucagon receptors (glucagon receptors): Displays no activity on glucagon, secretin or GRF receptors.); Activity on secretin receptors (secretin receptors): Displays no activity on glucagon, secretin or GRF receptors.); Activity on GRF receptors (GRF receptors): Displays no activity on glucagon, secretin or GRF receptors.)

**Q.** Which “ED50, stimulation of cAMP formation” value (calcitonin (CT) receptor; calcitonin (CT) receptor) does the source give for “Calcitoninreceptor-stimulating peptide-1 (SCNTATCMTHRLVGLLSRSGSMVRSNLLPTKMGFKVFG-NH2; ends and bridges not checked; UniProt Q862B1 81-118, looked up)” here?
**A.** 0.2 nM

**Q.** And the “Potency in stimulating cAMP formation relative to CT” value (calcitonin (CT) receptor; greater than CT)?
**A.** 350 fold

**Q.** And the “Activity at CGRP receptors” value [3]?
**A.** Displays no activity at calcitonin-gene related peptide (CGRP) and adrenomedullin

**Q.** What about the “Activity at adrenomedullin receptors” value (adrenomedullin receptors) of the same molecule?
**A.** Displays no activity at calcitonin-gene related peptide (CGRP) and adrenomedullin

**Q.** Which results are given for CC[C@H](C)[C@H](NC(=O)[C@H]1CCC[C@@H]1NC(=O)[C@H](CC(N)=O)NC(=O)[C@H](CC(C)C)NC(=O)[C@H](Cc1ccc(O)cc1)NC(=O)[C@H]1CNC[C@@H]1NC(=O)[C@H](CCCCN)NC(=O)[C@@H](NC(=O)[C@H]1CCC[C@@H]1NC(=O)[C@H](CC(C)C)NC(=O)[C@H](CCC(N)=O)NC(=O)[C@H](CCCCN)NC(=O)[C@H]1CNC[C@@H]1NC(=O)[C@H](CC(C)C)NC(=O)[C@H](CCCNC(=N)N)NC(=O)[C@H]1CCC[C@@H]1NC(=O)[C@H](Cc1ccc(O)cc1)NC(=O)[C@H](CC(N)=O)NC(=O)[C@H](CC(=O)O)NC(=O)[C@@H](NC(=O)[C@H](Cc1ccccc1)NC(=O)[C@@H](NC(=O)[C@H](C)NC(=O)[C@H](CC(=O)O)NC(=O)[C@H](CO)NC(=O)[C@@H](N)Cc1c[nH]cn1)C(C)C)[C@@H](C)O)C(C)C)C(=O)N[C@@H](CC(C)C)C(=O)NC(CC(N)=O)CC(N)=O [Compound 8, HSDAVFTDNYXRLZKQLXVKZYLNXILN]?
**A.** Mean RLU (VIPR1; [Compound] 1.00E−08 M): 13700.0 RLU; Mean RLU (VIPR1; [Compound] 1.00E−09 M): 10600.0 RLU; Mean RLU (VIPR1; [Compound] 1.00E−10 M): 9060.0 RLU; Mean RLU (VIPR1; [Compound] 1.00E−11 M): 10500.0 RLU; Mean RLU (VIPR1; [Compound] 1.00E−12 M): 10340.0 RLU; Mean RLU (VIPR1; [Compound] 5.00E−08 M): 95460.0 RLU; Mean RLU (VIPR1; [Compound] 5.00E−09 M): 13200.0 RLU; Mean RLU (VIPR1; [Compound] 5.00E−10 M): 9820.0 RLU; activation of VIPR1 (VIPR1; agonist mode, FIG. 3): fully activate; Mean RLU (VIPR2; [Compound] 1.00E−07 M): 8920.0 RLU; Mean RLU (VIPR2; [Compound] 1.00E−08 M): 9560.0 RLU; Mean RLU (VIPR2; [Compound] 1.00E−09 M): 8560.0 RLU; Mean RLU (VIPR2; [Compound] 1.00E−10 M): 7560.0 RLU; Mean RLU (VIPR2; [Compound] 1.00E−11 M): 9280.0 RLU; Mean RLU (VIPR2; [Compound] 1.00E−12 M): 8300.0 RLU; Mean RLU (VIPR2; [Compound] 5.00E−07 M): 10200.0 RLU; Mean RLU (VIPR2; [Compound] 5.00E−08 M): 9200.0 RLU; Mean RLU (VIPR2; [Compound] 5.00E−09 M): 8560.0 RLU; Mean RLU (VIPR2; [Compound] 5.00E−10 M): 9820.0 RLU; interaction with VIPR2 (VIPR2; agonist mode): does not interact substantially; activation of VIPR2 (VIPR2; agonist mode, FIG. 3): not activate
